Assay results taken from patent US20090247519A1, “AMINO-ETHYL-AMINO-ARYL (AEAA) COMPOUNDS AND THEIR USE” (priority 2006, published 2009).
pIC50: −log10 of the molar value.

Biological target: T1, Human full length PKD2 (Homo sapiens, UniProt Q9BZL6)
T1 construct: Human full length PKD2 at ˜100 μg/mL was purchased from Upstate Ltd; purchased Upstate Ltd 14-506
T1 sequence (Q9BZL6 1-878): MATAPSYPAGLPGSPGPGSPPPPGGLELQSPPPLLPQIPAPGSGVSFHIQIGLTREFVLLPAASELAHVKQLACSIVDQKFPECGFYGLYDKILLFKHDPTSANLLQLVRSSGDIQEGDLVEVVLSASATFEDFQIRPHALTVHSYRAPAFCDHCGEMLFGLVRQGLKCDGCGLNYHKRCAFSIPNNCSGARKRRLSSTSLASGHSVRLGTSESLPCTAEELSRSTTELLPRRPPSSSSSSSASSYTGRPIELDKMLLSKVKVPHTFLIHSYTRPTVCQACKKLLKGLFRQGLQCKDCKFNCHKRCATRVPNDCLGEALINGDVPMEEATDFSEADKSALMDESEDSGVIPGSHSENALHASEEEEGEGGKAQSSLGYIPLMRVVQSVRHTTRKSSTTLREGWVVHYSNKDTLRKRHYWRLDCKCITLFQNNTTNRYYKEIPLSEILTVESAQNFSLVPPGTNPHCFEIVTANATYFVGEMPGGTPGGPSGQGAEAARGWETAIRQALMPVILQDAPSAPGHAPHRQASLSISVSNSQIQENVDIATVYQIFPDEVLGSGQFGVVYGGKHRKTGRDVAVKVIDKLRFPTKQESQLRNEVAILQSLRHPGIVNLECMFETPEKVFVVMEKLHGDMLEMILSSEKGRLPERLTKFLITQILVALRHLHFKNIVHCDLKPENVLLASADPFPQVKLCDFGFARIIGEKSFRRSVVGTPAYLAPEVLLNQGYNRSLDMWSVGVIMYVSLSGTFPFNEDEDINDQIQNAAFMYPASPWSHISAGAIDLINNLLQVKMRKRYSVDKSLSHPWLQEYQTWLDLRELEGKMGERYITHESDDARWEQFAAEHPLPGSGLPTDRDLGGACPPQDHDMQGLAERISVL
Assay: PKD2 (Human Full Length) Enzyme Activity Assay (IMAP fluorescence polarisation)
Type: biochemical
Details: 10 point dose-response
Procedure: PKD2 (Human Full Length) Enzyme Activity Assay
Kinase Assay Reaction Buffer: This consisted of 0.22 μM filtered 25 mM HEPES and 10 mM MgCl2 pH 7.5.
Kinase: Human full length PKD2 at ˜100 μg/mL was purchased from Upstate Ltd (Product code 14-506), and obtained from aliquots stored at −70° C. It was prepared with a final concentration of […] by diluting 1:300 in Reaction Buffer (30 μL per 9 mL-5 mL per plate with an additional 4 mL dead volume) and vortexing prior to use. It is necessary to check this concentration regularly in case of enzyme degradation. […]
5 μL Kinase/Substrate in Reaction Buffer was added to ‘test’ and all ‘control’ wells of a Corning black low binding 384 well (90 μL volume) microplate to give 0.1 μg/mL and 2 μM reaction concentration respectively. […] The fluorescence polarisation of the peptide substrate was measured using an analyst (Molecular devices) microplate reader with a single read at Ex485 Em535 (Analyst settings: Z Height 5 mm, G Factor 0.95, Reads/well 1, Integration 100000 μs, Gain Sensitivity 2).
Percentage inhibition was calculated based on activity of the test sample minus the average values in the blank wells relative to the average values measured in control wells minus the average values in the blank wells.
IC50 values were calculated from 10 point dose sigmoid ‘dose-response’ curves using XIfit software (IDBS inc, USA). […]

pIC50: 8.39
Compound: CC[C@@H](N)CN(C)c1ccnc(-c2cc(Cl)ccc2O)n1 [XX-276, 2-{4-[((R)-2-Amino-butyl)-methyl-amino]-pyrimidin-2-yl}-4-chloro-phenol]
